Source: patent publication US20240109868A1, “EP300/CBP MODULATOR, PREPARATION METHOD THEREFOR AND USE THEREOF” (Miracure Biotechnology Limited, priority 2022, published 2024)

Assays:
vCap Cell = assay: vCap cell growth inhibition, CellTiter-Glo, 72 h; type: cell-based; conditions: vCap cells, 72 h culture
Experimental: (§1) 22RV1 or vCap cells were cultured in RPMI-1640 medium (10% fetal bovine serum and 100 units (per mL) of penicillin/streptomycin dual antibody were added to RPMI-1640) in a 37° C., 5% CO2 cell incubator. Cells at the logarithmic growth phase were inoculated onto a 96-well cell culture plate at 5×10^3 cells/100 μL/well and cultured overnight. Solutions of different concentrations of an active compound in DMSO were added, with the final concentration being 0.5% DMSO. The positive control was 1% TweeN2O, and the negative control was 0.5% DMSO. After 72 h of culture, an equal volume of CellTiter-Glo was added to each well, and the mixtures were mixed homogeneously by shaking for 2 min. The plate was let stand at room temperature for 10 min, and fluorescence signal values were read using a microplate reader. Data were analyzed using Prism 7.0 and graphs were generated. The values are shown as mean f SEM (N=2). […] The X-axis represents compound concentration (μM), and the Y-axis represents % inhibition.

22Rv1 Cell = assay: 22RV1 cell growth inhibition, CellTiter-Glo, 72 h; type: cell-based; conditions: 22RV1 cells, 72 h culture
Experimental: as §1

Row | Structure (SMILES) | IC50 (vCap Cell; Homo sapiens, VCaP, 72 h) | IC50 (22Rv1 Cell; Homo sapiens, 22Rv1, 72 h) | IC50 (vCap Cell) | IC50 (22Rv1 Cell)
1 | COC(=O)N1Cc2cc(C3CCC(OC)CC3)cc(N3CCCc4cc(-c5cnn(C)c5)c(C(F)F)cc43)c2C1 (centres unmarked) [Compound M001203] | > 1000 nM | > 1000 nM | – | –
2 | CSC1CCC(c2cc3c(c(N4CCCc5cc(-c6cnn(C)c6)c(C(F)F)cc54)c2)CN(C(C)=O)C3)CC1 (centres unmarked) [Compound M001315] | < 1000 nM | > 1000 nM | – | –
3 | CNC(=O)N1CCc2cc(C3CCN(C)C(=O)C3)cc(N3CCCc4cc(-c5cnn(C)c5)c(C(F)F)cc43)c2C1 (centres unmarked) [Compound M001124, 8-(7-(difluoromethyl)-6-(1-methyl-1H-pyrazol-4-yl)-3,4-dihydroquinolin-1(2H)-yl)-N-methyl-6-(1-methyl-2-oxopiperidin-4-yl)-3,4H-dihydroisoquinoline-2(1H)-carboxamide] | < 1000 nM | < 1000 nM | – | –
4 | CC(=O)N1Cc2cc([C@H]3CC[C@H](O)CC3)cc(N3CCCc4cc(-c5cnn(C)c5)c(C(F)F)cc43)c2C1 [Compound M001194] | < 1000 nM | > 1000 nM | – | –
5 | CC(=O)N1Cc2cc(C3CCC(N)CC3)cc(N3CCCc4cc(-c5cnn(C)c5)c(C(F)F)cc43)c2C1 (centres unmarked) [Compound M001320] | – | – | > 1000 nM | > 1000 nM
6 | CC(=O)N1Cc2cc(C3CCNC(=O)C3)cc(N3CCCc4cc(-c5cnn(C)c5)ccc43)c2C1 (centres unmarked) [Compound M001218] | > 1000 nM | > 1000 nM | – | –
7 | CC(=O)N1Cc2cc(C3CCN(C[C@H](C)O)CC3)cc(N3CCCc4cc(-c5cnn(C)c5)c(C(F)F)cc43)c2C1 [Compound M001030] | > 1000 nM | > 1000 nM | – | –
8 | CNC(=O)N1Cc2cc(C3CC4CCC(C3)N4C)cc(N3CCCc4cc(-c5cnn(C)c5)c(C(F)F)cc43)c2C1 (centres unmarked) [Compound M001092] | > 1000 nM | > 1000 nM | – | –
9 | CC(=O)N1Cc2cc(C3CCN(S(C)(=O)=O)CC3)cc(N3CCCc4cc(-c5cnn(C)c5)c(C(F)F)cc43)c2C1 [Compound M001296] | < 1000 nM | < 1000 nM | – | –
10 | CN1CCC(c2cc3c(c(N4CCCc5cc(-c6cnn(C)c6)c(C(F)F)cc54)c2)CN(C)C(=O)C3)CC1 [Compound M001028, 8-[7-(difluoromethyl)-6-(1-methylpyrazol-4-yl)-3,4-dihydro-2H-quinolin-1-yl]-2-methyl-6-(1-methyl-4-piperidyl)-1,4-dihydroisoquinolin-3-one] | > 1000 nM | > 1000 nM | – | –
11 | CC(=O)N1Cc2cc(C3CCN(C4CCC(=O)NC4=O)C(=O)C3)cc(N3CCCc4cc(-c5cnn(C)c5)c(C(F)F)cc43)c2C1 (centres unmarked) [Compound M001288] | > 1000 nM | > 1000 nM | – | –
12 | CC(=O)N1CCc2cc(C3CCNC(=O)C3)cc(N3CCCc4cc(-c5cnn(C)c5)c(C(F)F)cc43)c2C1 (centres unmarked) [Compound M001142] | > 1000 nM | > 1000 nM | – | –
13 | CC(=O)N1CCc2cc([C@H]3CC[C@H](O)CC3)cc(N3CCCc4cc(-c5cnn(C)c5)c(C(F)F)cc43)c2C1 [Compound M001179] | > 1000 nM | > 1000 nM | – | –
14 | CNC(=O)N1Cc2cc(C3CCNCC3)cc(N3CCCc4cc(-c5cnn(C)c5)c(C(F)F)cc43)c2C1 [Compound M001042] | > 1000 nM | > 1000 nM | – | –
15 | CC(=O)N1Cc2cc(C3CC4CCC(C3)N4C)cc(N3CCCc4cc(-c5cnn(C)c5)c(C(F)F)cc43)c2C1 (centres unmarked) [Compound M001032] | > 1000 nM | > 1000 nM | – | –
16 | CNC(=O)N1CCc2cc(C3CC4CCC(C3)N4)cc(N3CCCc4cc(-c5cnn(C)c5)c(C(F)F)cc43)c2C1 (centres unmarked) [Compound M001089] | > 1000 nM | > 1000 nM | – | –
17 | COC1CCC(c2cc3c(c(N4CCCc5cc(-c6cnn(C)c6)c(C(F)F)cc54)c2)CN(C(C)=O)CC3)CC1 (centres unmarked) [Compound M001196] | > 1000 nM | > 1000 nM | – | –
18 | CNC(=O)N1CCc2cc(C3=CCC4(CC3)OCCO4)cc(N3CCCc4cc(-c5cnn(C)c5)c(C(F)F)cc43)c2C1 [Compound M001090] | > 1000 nM | > 1000 nM | – | –
19 | CNC(=O)N1CCc2cc(C3CCN(C)C3)cc(N3CCCc4cc(-c5cnn(C)c5)c(C(F)F)cc43)c2C1 (centres unmarked) [Compound M001051] | > 1000 nM | > 1000 nM | – | –
20 | CNC(=O)N1CCc2cc(C3CCN(C4COC4)CC3)cc(N3CCCc4cc(-c5cnn(C)c5)c(C(F)F)cc43)c2C1 [Compound M001059] | > 1000 nM | > 1000 nM | – | –
21 | CNC(=O)N1CCc2cc(CN3CCCC(C(=O)O)C3)cc(N3CCCc4cc(-c5cnn(C)c5)c(C(F)F)cc43)c2C1 (centres unmarked) [Compound M001015] | > 1000 nM | > 1000 nM | – | –
22 | CNC(=O)N1CCc2cc(C3CCN(C(=O)C4CN(C)C4)CC3)cc(N3CCCc4cc(-c5cnn(C)c5)c(C(F)F)cc43)c2C1 [Compound M001084] | > 1000 nM | > 1000 nM | – | –
23 | CC(=O)N1Cc2cc([C@H]3CC[C@@H](N)CC3)cc(N3CCCc4cc(-c5cnn(C)c5)c(C(F)F)cc43)c2C1 [Compound M001321] | > 1000 nM | > 1000 nM | – | –
24 | CNC(=O)N1CCc2cc(N3CCNCC3)cc(N3CCCc4cc(-c5cnn(C)c5)c(C(F)F)cc43)c2C1 [Compound M001044] | > 1000 nM | > 1000 nM | – | –
25 | CNC(=O)N1CCc2cc(C3CCOCC3)cc(N3CCCc4cc(-c5cnn(C)c5)c(C(F)F)cc43)c2C1 [Compound M001184] | < 1000 nM | > 1000 nM | – | –

Continued, values first:

Row | IC50 (vCap Cell; Homo sapiens, VCaP, 72 h) | IC50 (22Rv1 Cell; Homo sapiens, 22Rv1, 72 h) | IC50 (vCap Cell) | IC50 (22Rv1 Cell) | Structure (SMILES)
26 | > 1000 nM | > 1000 nM | – | – | CC(=O)N1Cc2cc(-c3cc[nH]c(=O)c3)cc(N3CCCc4cc(-c5cnn(C)c5)c(C(F)F)cc43)c2C1 [Compound M001156]
27 | > 1000 nM | > 1000 nM | – | – | CNC(=O)N1CCCc2cccc(N3CCCc4cc(-c5cnn(C)c5)c(C(F)F)cc43)c2C1 [Compound M001211]
28 | > 1000 nM | > 1000 nM | – | – | CC(=O)N1Cc2cc(N3CCSCC3)cc(N3CCCc4cc(-c5cnn(C)c5)c(C(F)F)cc43)c2C1 [Compound M001004]
29 | < 1000 nM | < 1000 nM | – | – | CC(=O)N1Cc2cc(C3CCC(S(C)(=N)=O)CC3)cc(N3CCCc4cc(-c5cnn(C)c5)c(C(F)F)cc43)c2C1 (centres unmarked) [Compound M001297, (4-(2-acetyl-7-(7-(difluoromethyl)-6-(1-methyl-1H-pyrazol-4-yl)-3,4-dihydroquinolin-1(2H)-yl)isoindol-5-yl)cyclohexyl)(imino)(methyl)-16-sulfanone]
30 | > 1000 nM | > 1000 nM | – | – | CNC(=O)N1Cc2cc(C3=CCN(C(=O)OCc4ccccc4)CC3)cc(N3CCCc4cc(-c5cnn(C)c5)c(C(F)F)cc43)c2C1 [Compound M001096]
31 | > 1000 nM | > 1000 nM | – | – | CNC(=O)N1Cc2cc(C3CCC(F)(F)CC3)cc(N3CCCc4cc(-c5cnn(C)c5)c(C(F)F)cc43)c2C1 [Compound M001094]
32 | > 1000 nM | > 1000 nM | – | – | CNC(=O)N1Cc2cc(-c3cc[nH]c(=O)c3)cc(N3CCCc4cc(-c5cnn(C)c5)c(C(F)F)cc43)c2C1 [Compound M001155]
33 | – | – | > 1000 nM | > 1000 nM | CC(=O)N1Cc2cc(C3CCC(S(C)(=N)=O)CC3)cc(N3CCCc4cc(-c5cnn(C)c5)c(C(F)F)cc43)c2C1 (centres unmarked) [Compound M001327]
34 | > 1000 nM | > 1000 nM | – | – | CCN1CCC(c2cc3c(c(N4CCCc5cc(-c6cnn(C)c6)c(C(F)F)cc54)c2)CN(C(C)=O)CCC3)CC1=O (centres unmarked) [Compound M001264]
35 | < 1000 nM | > 1000 nM | – | – | CC(=O)N1Cc2cc(C3CCC([S+](C)[O-])CC3)cc(N3CCCc4cc(-c5cnn(C)c5)c(C(F)F)cc43)c2C1 (centres unmarked) [Compound M001323]
36 | > 1000 nM | > 1000 nM | – | – | CC(=O)N1Cc2cc(C3CCN(C)CC3)cc(N3CCCc4cc(-c5cnn(C)c5)c(C(F)F)cc43)c2C1 [Compound M001041]
37 | < 1000 nM | < 1000 nM | – | – | CC(=O)N[C@H]1CC[C@H](c2cc3c(c(N4CCCc5cc(-c6cnn(C)c6)c(C(F)F)cc54)c2)CN(C(C)=O)C3)CC1 [Compound M001304]
38 | > 1000 nM | > 1000 nM | – | – | COC(=O)N1CCc2cc(C3CCC(=O)N(CC(C)(C)O)C3)cc(N3CCCc4cc(-c5cnn(C)c5)c(C(F)F)cc43)c2C1 (centres unmarked) [Compound M001272]
39 | > 1000 nM | > 1000 nM | – | – | CON1CCC(c2cc3c(c(N4CCCc5cc(-c6cnn(C)c6)c(C(F)F)cc54)c2)CN(C(C)=O)C3)CC1 [Compound M001269]
40 | < 1000 nM | > 1000 nM | – | – | CNC(=O)N1Cc2cc(C3CCN(C(C)=O)CC3)cc(N3CCCc4cc(-c5cnn(C)c5)c(C(F)F)cc43)c2C1 [Compound M001161]
41 | < 1000 nM | < 1000 nM | – | – | CC(=O)N1Cc2cc(C3CCC4(CC3)OCCO4)cc(N3CCCc4cc(-c5cnn(C)c5)c(C(F)F)cc43)c2C1 [Compound M001101]
42 | < 1000 nM | < 1000 nM | – | – | CC(=O)N1Cc2cc(C3CCN(S(=O)(=O)C4CC4)CC3)cc(N3CCCc4cc(-c5cnn(C)c5)c(C(F)F)cc43)c2C1 [Compound M001298]
43 | > 1000 nM | > 1000 nM | – | – | CC(=O)N1Cc2cc(C3CCN(C(=O)C4CCN(C)C4)CC3)cc(N3CCCc4cc(-c5cnn(C)c5)c(C(F)F)cc43)c2C1 (centres unmarked) [Compound M001087]
44 | > 1000 nM | > 1000 nM | – | – | CNC(=O)N1CCc2cc(C3CCN(CC(F)(F)F)CC3)cc(N3CCCc4cc(-c5cnn(C)c5)c(C(F)F)cc43)c2C1 [Compound M001060]
45 | > 1000 nM | > 1000 nM | – | – | CNC(=O)N1CCc2cc(C3CCN(CC#N)CC3)cc(N3CCCc4cc(-c5cnn(C)c5)c(C(F)F)cc43)c2C1 [Compound M001070]
46 | – | – | < 1000 nM | < 1000 nM | CC(=O)N1Cc2cc(C3CCN(CC(C)O)C(=O)C3)cc(N3CCCc4cc(-c5cnn(C)c5)c(C(F)F)cc43)c2C1 (centres unmarked) [Compound M001249]
